This is an account of results in US6545007B2, “Methods for inhibiting the transmission of HIV using topically applied substituted 6-benzyl-4-oxopyrimidines” (Idenix (Cayman) Limited, priority 2000, dated 2003).

In data set [1] the test system is HIV-1 (IIIB strain). The data set is classed as cell-based. As to conditions: for EC50: anti-HIV-1 activity; for SI: selectivity index (CC50/EC50). On the procedure:
Compounds. Compounds were solubilized in DMSO at 200 mM and then diluted into culture medium.
(§1) Cells and viruses. MT-4, C8166,H9/IIIB and CEM cells were grown at 37° C. in a 5% CO2 atmosphere in RPMI 1640 medium, supplemented with 10% fetal calf serum (FCS), 100 IU/mL penicillin and 100 μg/mL streptomycin. Cell cultures were checked periodically for the absence of mycoplasma contamination with a MycoTect Kit (Gibco). Human immunodeficiency virus type-I (HIV-1, IIIB strain) was obtained from supernatants of persistently infected H9/IIIB cells.
HIV Titration. Titration of HIV was performed in C8166 cells by the standard limiting dilution method (dilution 1:2, four replica wells per dilution) in 96-well plates. The infectious virus titre was determined by light microscope scoring of cytopathicity after 4 days of incubation and the virus titres were expressed as CCID50/mL.
(§2) Anti-HIV Assays. Activity of the compounds against HIV-1 and HIV-2 multiplication in acutely infected cells was based on the inhibition of virus-induced cytopathicity in MT-4 and C8166 cells, respectively. Briefly, 50 μL of culture medium containing 1×10^4 cells were added to each well of flat-bottom microtiter trays containing 50 μl of culture medium with or without various concentrations of the test compounds. Then 20 μL of an HIV suspension containing 100 CCID50 were added. After a 4-day incubation at 37° C., the number of viable cells was determined by the 3-(4,5-dimethylthiazol-[…])-2,5-diphenyltetrazolium bromide (MTT) method. Cytotoxicity of the compounds was evaluated in parallel with their antiviral activity. It was based on the viability of mock-infected cells, as monitored by the MTT method.

Data set [2] concerns mock-infected MT-4 cells. In words: Cytotoxicity: viability of mock-infected cells by the MTT method. In kind it is cell-based, human. The protocol: as §1, §2
Where [3] appears, read: acutely infected MT-4 cells, MTT.

Like-named read-outs stand apart in the source and are kept apart here.

On to `CCc1c(Cc2c(F)cccc2F)nc(SCSC)[nH]c1=O` [MC 1157], for which the concentration giving a half-maximal response (EC50) in data set [1] (setting [3]) stood at 110 nM. In data set [2] (MTT), this compound returned a half-maximal cytotoxic concentration (CC50) of 50000 nM.

On to `CSCSc1nc(Cc2c(F)cccc2F)cc(=O)[nH]1` [MC 1161, 6-(2,6-Difluorophenyhnethyl)-3,4-dihydro-2-(methylthiomethyl)thiopyrimidin-4-(3H)-one], for which the concentration for a half-maximal effect (EC50) in data set [1] (setting [3]) worked out at 800 nM. Moreover, the CC50 in data set [2] (MTT) is > 200000 nM.

In data set [1] (setting [3]), `CSCSc1nc(Cc2c(F)cccc2F)c(C)c(=O)[nH]1` [MC 1162, 6-(2,6-Difluorophenylmethyl)-3,4-dihydro-5-methyl-2-(methylthiomethyl)thiopyrimidin-4(3H)-one] gave an EC50 of 120 nM. This compound also had a CC50 in data set [2] (MTT) of 30000 nM.

`CNc1nc(Cc2c(F)cccc2F)cc(=O)[nH]1` [MC 1167] returned an EC50 in data set [1] (HIV-1-infected MT-4 cells) of 1500 nM. The SI in data set [1] is on record as >133. Moreover, the 50% cytotoxic concentration (CC50) in data set [2] was > 200000 nM.

In the case of `CNc1nc(Cc2c(F)cccc2F)c(C)c(=O)[nH]1` [MC 1168], in data set [1] (HIV-1-infected MT-4 cells), the EC50 was determined as 400 nM. Further, in data set [1], the SI is listed as 335. Besides, in data set [2], half-maximal cytotoxicity (CC50) was put at 135000 nM.

As for `CNc1nc(C(C)c2c(F)cccc2F)c(C)c(=O)[nH]1` (centres unmarked) [MC 1170], in data set [1] (setting [3]), a half-maximal response (EC50) required 30 nM. Also, in data set [2] (MTT), the CC50 is ≥ 200000 nM.

In the case of `Cc1c(C(C)c2c(F)cccc2F)nc(SC2CCCCC2)[nH]c1=O` (centres unmarked) [MC 1174], in data set [1] (setting [3]), the response was half-maximal at 18 nM (EC50). In data set [2] (MTT), the CC50 is > 200000 nM.

`CCCCSc1nc(C(C)c2c(F)cccc2F)c(C)c(=O)[nH]1` (centres unmarked) [MC 1175] came in with a concentration for a half-maximal effect (EC50) in data set [1] (setting [3]) of 8 nM. The compound also came in with a 50% cytotoxic concentration (CC50) in data set [2] (MTT) of 112000 nM.

`CNc1nc(C(C)c2c(F)cccc2F)cc(=O)[nH]1` (centres unmarked) [MC 1178] yielded a half-maximal effective concentration (EC50) in data set [1] (setting [3]) of 110 nM. Further, the midpoint of cytotoxicity in data set [2] (MTT), the CC50, lay at 106000 nM.

With `CC(c1cc(=O)[nH]c(NC2CCCCC2)n1)c1c(F)cccc1F` (centres unmarked) [MC 1180], in data set [1] (setting [3]), the EC50 was found to be 20 nM. In data set [2] (MTT), this compound yielded a half-maximal cytotoxic concentration (CC50) of 56000 nM.

Take `Cc1c(C(C)c2c(F)cccc2F)nc(NC2CCCCC2)[nH]c1=O` (centres unmarked) [MC 1181]: it took 30 nM to reach a half-maximal effect in data set [1] (setting [3]) (EC50). The same compound returned a CC50 in data set [2] (MTT) of 58000 nM.

For `CN(C)c1nc(Cc2c(F)cccc2F)cc(=O)[nH]1` [MC 1182, 6-(2,6-Difluorophenylmethyl)-3,4-dihydro-2-N,N-dimethylaminopyrimidin-4-(3H)-one], the EC50 in data set [1] (setting [3]) was 50 nM. The half-maximal cytotoxic concentration (CC50) in data set [2] (MTT) is > 200000 nM.

In data set [1] (setting [3]), `CN1CCN(c2nc(Cc3c(F)cccc3F)cc(=O)[nH]2)CC1` [MC 1183] came in with a 50% effective concentration (EC50) of 7100 nM. In addition, in data set [2] (MTT), the half-maximal cytotoxic concentration (CC50) was > 200000 nM.

`CCCCNc1nc(Cc2c(F)cccc2F)c(C)c(=O)[nH]1` [MC 1185]: the concentration for a half-maximal effect (EC50) in data set [1] (setting [3]) amounted to 20 nM. In data set [2] (MTT), the cytotoxic concentration (CC50) is > 200000 nM.

With `CCCNc1nc(Cc2c(F)cccc2F)c(C)c(=O)[nH]1` [MC 1186], the 50% effective concentration (EC50) in data set [1] (HIV-1-infected MT-4 cells) came to 20 nM. The SI in data set [1] is on record as >10,000. In data set [2], the half-maximal cytotoxic concentration (CC50) was > 200000 nM.

The compound `CCCCNc1nc(C(C)c2c(F)cccc2F)c(C)c(=O)[nH]1` (centres unmarked) [MC 1187] gave a concentration giving a half-maximal response (EC50) in data set [1] (setting [3]) of 10 nM. This compound came in with a CC50 in data set [2] (MTT) of 83000 nM.

`O=c1cc(Cc2c(F)cccc2F)nc(N2CCOCC2)[nH]1` [MC 1188] came in with a concentration for a half-maximal effect (EC50) in data set [1] (setting [3]) of 600 nM. Further, the cytotoxic concentration (CC50) in data set [2] (MTT) is > 200000 nM.

On to `CCCCNc1nc(C(C)c2c(F)cccc2F)cc(=O)[nH]1` (centres unmarked) [MC 1189], for which the EC50 in data set [1] (setting [3]) worked out at 30 nM. Further, the CC50 in data set [2] (MTT) stood at 52000 nM.

In the case of `CCCNc1nc(C(C)c2c(F)cccc2F)cc(=O)[nH]1` (centres unmarked) [MC 1190], in data set [1] (setting [3]), it took 20 nM to reach a half-maximal effect (EC50). For the same compound, in data set [2] (MTT), it took 103000 nM to reach half-maximal cytotoxicity (CC50).

`CC(C)Nc1nc(C(C)c2c(F)cccc2F)cc(=O)[nH]1` (centres unmarked) [MC 1191]: the half-maximal effective concentration (EC50) in data set [1] (setting [3]) was found to be 30 nM. This compound gave a 50% cytotoxic concentration (CC50) in data set [2] (MTT) of 115000 nM.

Regarding `CCC(C)Nc1nc(C(C)c2c(F)cccc2F)cc(=O)[nH]1` (centres unmarked) [MC 1192], the concentration for a half-maximal effect (EC50) in data set [1] (setting [3]) was 40 nM. In data set [2] (MTT), this compound displayed a CC50 of 86000 nM.

`O=c1cc(Cc2c(F)cccc2F)nc(N2CCSCC2)[nH]1` [MC 1193] came in with a 50% effective concentration (EC50) in data set [1] (setting [3]) of 50 nM. For the same compound, the 50% cytotoxic concentration (CC50) in data set [2] (MTT) was > 200000 nM.

On to `O=c1cc(Cc2c(F)cccc2F)nc(N2CCCCC2)[nH]1` [MC 1194], for which the 50% effective concentration (EC50) in data set [1] (setting [3]) worked out at 20 nM. Besides, the CC50 in data set [2] (MTT) is > 200000 nM.

In the case of `Cc1c(Cc2c(F)cccc2F)nc(N(C)C)[nH]c1=O` [MC 1195], the midpoint of the response in data set [1] (setting [3]), the EC50, lay at 20 nM. The cytotoxic concentration (CC50) in data set [2] (MTT) is > 200000 nM.

The compound `O=c1cc(Cc2c(F)cccc2F)nc(N2CCCC2)[nH]1` [MC 1196] returned an EC50 in data set [1] (setting [3]) of 2100 nM. For the same compound, in data set [2] (MTT), the cytotoxic concentration (CC50) is > 200000 nM.
